Experimental data from patent publication US20250382332A1, “NOVEL ALPHA-FACTOR BASED PEPTIDES WITH ANTIFUNGAL ACTIVITY” (INVAIO SCIENCES, INC., priority 2024, published 2025).
Peptide text beside a SMILES is read from it.

Key:
[1] = tested on: Botrytis cinerea (B05.10); assay: Resazurin antifungal assay of 23 alpha-factor peptides (dimers, hybrids) towards Botrytis (Example 15, Table 6); assay type: cell-based; set-up: key to active against Botrytis at 2.5 μM: Peptides that showed greater than 90% inhibition were considered active against Botrytis; conditions: for Inhibition at 10 μM: peptide 10 μM; for Inhibition at 20 μM: peptide 20 μM; for Inhibition at 50 μM: peptide 50 μM; for Inhibition at 5 μM: peptide 5 μM
Method: The antifungal activity of […] alpha-factor peptide variants towards Botrytis was tested. Experimental design:
Peptides corresponding to SEQ ID NO: 261-264 and 401-420 were chemically synthesized using the solid-phase synthesis method and resuspended in water to a stock solution of 1 mM. The stock solution was aliquoted in cryovials and stored at −80° C.
The Botrytis cinerea culture (B05.10) isolate was acquired from the Centraalbureau voor Schimmelcultures, the Netherlands. The Botrytis fungus was propagated on 0.5% V8 agar plates (200 ml V8 Juice, 3 g CaCO3, 15 g agar, 800-ml millipore water) at 20° C., in a 12 h photoperiod for 21 days.
Fungal conidia were harvested by scraping a Botrytis plate flooded with 1 ml water with 0.1% Tween 80 solution. Conidia were then collected in a 50 ml falcon tube by passing the solution through a 40 micron filter. The solution was then centrifuged at 6000 rpm and the pellet was resuspended in 1 ml of 20% glycerol. The conidia concentration of the resulting solution was counted using a hemocytometer. The stock was diluted to […] using 20% glycerol and frozen in 100 μl aliquots in −80° C. until further use.
Peptides were tested for activity against Botrytis, using the resazurin assay. For this, fungal stock conidia was first diluted to 5000 conidia/well. 50 μl of the spore suspension was added to each well of the sterile 96-well clear bottom testing plate and mixed with 50 μl of peptide solutions to a final concentration of 100, 50, 20, 10, 5 and 2.5 μM. The plate was incubated for 24 h at 20° C. After 24 h, 10 μl of resazurin dye was added to the microtiter plate and incubated again for […]. Fluorescence was measured at 570/620 nm after 4 h of incubation with resazurin.
Growth inhibition was calculated by subtracting the fluorescence values of conidia only wells from sample wells and depicted as % inhibition of fungal growth. Four technical replicates were used for all treatments.

[2] = tested on: Botrytis cinerea (B05.10); assay: Resazurin antifungal assay of 180 alpha-factor peptide variants towards Botrytis (Example 2); assay type: cell-based; conditions: % inhibition of fungal growth, Botrytis conidia, resazurin; for Inhibition at 10 μM: peptide 10 μM; for Inhibition at 20 μM: peptide 20 μM; for Inhibition at 50 μM: peptide 50 μM; for Inhibition at 100 μM: peptide 100 μM; for Inhibition at 15 μM: peptide 15 μM
In short: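 B. cinerea B05.10 conidia (5000/well) were exposed to peptides at 100, 50, 20, 15 and 10 μM final for 24 h at 20° C. Resazurin was then added and fluorescence read at 570/620 nm. Percent growth inhibition was calculated against conidia-only wells, with four technical replicates.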

[3] = resazurin assay, % inhibition of fungal growth, Botrytis cinerea B05.10
[4] = peptide 2.5 μM, resazurin assay, % inhibition of fungal growth, Botrytis cinerea B05.10

Row | SMILES | Inhibition at 10 μM [1, 3] [%] | Inhibition at 20 μM [1, 3] [%] | Inhibition at 50 μM [1, 3] [%] | Inhibition at 50 μM [2] [%] | Inhibition at 100 μM [2] [%] | also measured
1 | CC[C@H](C)[C@H](NC(=O)[C@H](CCC(N)=O)NC(=O)[C@H](CC(C)C)NC(=O)[C@H](CO)NC(=O)[C@H](Cc1c[nH]cn1)NC(=O)[C@@H](N)Cc1c[nH]c2ccccc12)C(=O)N[C@@H](CCCCN)C(=O)N[C@@H](CCCCN)C(=O)NCC(=O)N[C@@H](CCC(N)=O)C(=O)N1CCC[C@H]1C(=O)N[C@@H](CCSC)C(=O)N[C@@H](Cc1ccc(O)cc1)C(=O)O [compound 407] (H-WHSLQIKKGQPMY-OH; N-terminus and C-terminus assumed) | <90 | <90 | 100 |  |  | 
2 | CSCC[C@H](NC(=O)[C@@H]1CCCN1C(=O)[C@H](CCC(N)=O)NC(=O)CNC(=O)[C@H](C)NC(=O)[C@H](CCCNC(=N)N)NC(=O)[C@H](CC(C)C)NC(=O)[C@H](CCCNC(=N)N)NC(=O)CNC(=O)[C@H](Cc1c[nH]c2ccccc12)NC(=O)[C@H](Cc1c[nH]cn1)NC(=O)[C@@H](N)CCCCN)C(=O)N[C@@H](Cc1ccc(O)cc1)C(=O)NCC(=O)NCC(=O)NCC(=O)NCC(=O)N[C@@H](CCCNC(=N)N)C(=O)N[C@@H](CCCNC(=N)N)C(=O)N[C@@H](CCCNC(=N)N)C(=O)N[C@@H](CCCNC(=N)N)C(=O)N[C@@H](CCCNC(=N)N)C(=O)N[C@@H](CCCNC(=N)N)C(=O)N[C@@H](CCCNC(=N)N)C(=O)N[C@@H](CCCNC(=N)N)C(=O)O [compound 262] (H-KHWGRLRAGQPMYGGGGRRRRRRRR-OH; N-terminus and C-terminus assumed) | 100 | 100 | 100 |  |  | active against Botrytis at 2.5 μM ([1]; peptide 2.5 μM): active; Inhibition at 2.5 μM [1, 4]: 99.8%; Inhibition at 5 μM [1, 3]: 100%
3 | CSCC[C@H](NC(=O)[C@H](CO)NC(=O)[C@H](CCC(N)=O)NC(=O)CNC(=O)[C@H](CCCNC(=N)N)NC(=O)[C@H](CCCCN)NC(=O)[C@H](CC(C)C)NC(=O)[C@@H](NC(=O)[C@H](CC(C)C)NC(=O)[C@@H](NC(=O)[C@@H](NC(=O)[C@@H](N)Cc1c[nH]c2ccccc12)[C@@H](C)O)C(C)C)[C@@H](C)O)C(=O)N[C@@H](Cc1ccc(O)cc1)C(=O)O [compound 409] (H-WTVLTLKRGQSMY-OH; N-terminus and C-terminus assumed) | 97.7 | 100 | 100 |  |  | Inhibition at 2.5 μM [1, 4]: <90%; Inhibition at 5 μM [1, 3]: <90%
4 | CSCC[C@H](NC(=O)[C@H](Cc1ccc(O)cc1)NC(=O)[C@H](CCCNC(=N)N)NC(=O)[C@H](CCCNC(=N)N)NC(=O)[C@H](CCCNC(=N)N)NC(=O)[C@H](CCCNC(=N)N)NC(=O)[C@H](CCCNC(=N)N)NC(=O)[C@H](CCCNC(=N)N)NC(=O)[C@H](CCCNC(=N)N)NC(=O)[C@@H](N)CCCNC(=N)N)C(=O)N1CCC[C@H]1C(=O)N[C@@H](CCC(N)=O)C(=O)NCC(=O)N1CCC[C@H]1C(=O)N[C@@H](CCCCN)C(=O)N[C@@H](CC(C)C)C(=O)N[C@@H](CCC(N)=O)C(=O)N[C@@H](CC(C)C)C(=O)N[C@@H](Cc1c[nH]c2ccccc12)C(=O)N[C@@H](Cc1c[nH]cn1)C(=O)N[C@@H](Cc1c[nH]c2ccccc12)C(=O)O [compound 420] (H-RRRRRRRRYMPQGPKLQLWHW-OH; N-terminus and C-terminus assumed) |  |  | 100 |  |  | Inhibition at 100 μM ([1]; peptide 100 μM, resazurin assay, % inhibition of fungal growth, Botrytis cinerea B05.10): 100%
5 | CSCC[C@H](NC(=O)[C@@H]1CCCN1C(=O)[C@H](CCC(N)=O)NC(=O)CNC(=O)[C@@H]1CCCN1C(=O)[C@H](Cc1c[nH]c2ccccc12)NC(=O)[C@H](CC(C)C)NC(=O)[C@H](CCCNC(=N)N)NC(=O)[C@H](CC(C)C)NC(=O)[C@H](CO)NC(=O)[C@H](Cc1c[nH]cn1)NC(=O)[C@@H](N)CCCCN)C(=O)N[C@@H](Cc1ccc(O)cc1)C(=O)O [compound 404] (H-KHSLRLWPGQPMY-OH; N-terminus and C-terminus assumed) | <90 | <90 | 100 |  |  | 
6 | CSCC[C@H](NC(=O)[C@@H]1CCCN1C(=O)[C@H](CCC(N)=O)NC(=O)CNC(=O)[C@H](CCCNC(=N)N)NC(=O)[C@H](CC(=O)O)NC(=O)[C@H](CC(C)C)NC(=O)[C@H](CCC(N)=O)NC(=O)[C@H](CC(C)C)NC(=O)[C@H](Cc1c[nH]c2ccccc12)NC(=O)[C@H](CCC(N)=O)NC(=O)[C@@H](N)Cc1c[nH]c2ccccc12)C(=O)N[C@@H](Cc1ccc(O)cc1)C(=O)O [compound 406] (H-WQWLQLDRGQPMY-OH; N-terminus and C-terminus assumed) |  |  | <90 |  |  | 
7 | CSCC[C@H](NC(=O)[C@@H]1CCCN1C(=O)[C@H](CCC(N)=O)NC(=O)CNC(=O)[C@H](Cc1ccc(O)cc1)NC(=O)[C@H](CC(N)=O)NC(=O)[C@H](CC(C)C)NC(=O)[C@H](CCCCN)NC(=O)[C@H](CC(C)C)NC(=O)[C@H](Cc1c[nH]c2ccccc12)NC(=O)[C@H](Cc1c[nH]cn1)NC(=O)[C@@H](N)Cc1c[nH]c2ccccc12)C(=O)N[C@@H](Cc1ccc(O)cc1)C(=O)O [compound 108] (H-WHWLKLNYGQPMY-OH; N-terminus and C-terminus assumed) |  |  |  | <90 | 100 | Inhibition at 10 μM [2]: <90%; Inhibition at 20 μM [2]: <90%
8 | CSCC[C@H](NC(=O)[C@@H]1CCCN1C(=O)[C@H](CO)NC(=O)CNC(=O)[C@H](CCCNC(=N)N)NC(=O)[C@H](CCCCN)NC(=O)[C@H](CC(C)C)NC(=O)[C@H](CC(N)=O)NC(=O)[C@@H](NC(=O)[C@H](CC(=O)O)NC(=O)[C@H](Cc1c[nH]cn1)NC(=O)[C@@H](N)Cc1c[nH]c2ccccc12)C(C)C)C(=O)N[C@@H](Cc1ccc(O)cc1)C(=O)O [compound 176] (H-WHDVNLKRGSPMY-OH; N-terminus and C-terminus assumed) |  |  |  | <90 | <90 | 
9 | CSCC[C@H](NC(=O)[C@@H]1CCCN1C(=O)[C@H](CCC(=O)O)NC(=O)CNC(=O)[C@@H]1CCCN1C(=O)[C@H](CCCCN)NC(=O)[C@H](CC(C)C)NC(=O)[C@H](CC(N)=O)NC(=O)[C@H](CC(C)C)NC(=O)[C@H](Cc1c[nH]c2ccccc12)NC(=O)[C@H](Cc1c[nH]cn1)NC(=O)[C@@H]1CCCN1)C(=O)N[C@@H](Cc1ccc(O)cc1)C(=O)O [compound 158] (H-PHWLNLKPGEPMY-OH; N-terminus and C-terminus assumed) |  |  |  | <90 | <90 | 
10 | CC[C@H](C)[C@H](NC(=O)[C@H](CCCNC(=N)N)NC(=O)[C@@H](NC(=O)[C@H](Cc1c[nH]c2ccccc12)NC(=O)[C@H](Cc1c[nH]cn1)NC(=O)[C@@H](N)Cc1c[nH]c2ccccc12)C(C)C)C(=O)N[C@@H](Cc1c[nH]c2ccccc12)C(=O)N1CCC[C@H]1C(=O)NCC(=O)N[C@@H](CCC(N)=O)C(=O)N1CCC[C@H]1C(=O)N[C@@H](CCSC)C(=O)N[C@@H](Cc1ccc(O)cc1)C(=O)O [compound 51] (H-WHWVRIWPGQPMY-OH; N-terminus and C-terminus assumed) |  |  |  | 100 | 100 | Inhibition at 10 μM [2]: <90%; Inhibition at 15 μM [2]: <90%; Inhibition at 20 μM [2]: 97.13%
11 | CC[C@H](C)[C@H](NC(=O)[C@H](CCCCN)NC(=O)[C@H](CC(C)C)NC(=O)[C@H](Cc1ccccc1)NC(=O)[C@H](Cc1c[nH]cn1)NC(=O)[C@@H](N)CCCCN)C(=O)N[C@@H](CCCCN)C(=O)N1CCC[C@H]1C(=O)NCC(=O)N[C@@H](CCC(N)=O)C(=O)N1CCC[C@H]1C(=O)N[C@@H](CCSC)C(=O)N[C@@H](Cc1ccc(O)cc1)C(=O)O [compound 86] (H-KHFLKIKPGQPMY-OH; N-terminus and C-terminus assumed) |  |  |  | 100 | 100 | Inhibition at 10 μM [2]: <90%; Inhibition at 15 μM [2]: <90%; Inhibition at 20 μM [2]: 99.49%
